Where two headings read alike, the source gives them in different places.
Assays:
[1] = system: conditioned avoidance response; assay: Conditioned avoidance response (CAR) test; type: in vivo; conditions: Rattus norvegicus
Text: Conditioned Avoidance Response (CAR) Test
The apparatus consisted of an inner box surrounded by an outer box. The inner box was composed of four walls of transparent, synthetic material (length×width×height: 30×30×30 cm), an open top, and a grid floor made of 15 pairs of iron bars (2 mm diameter; 6 mm inter-bar distance). Odd and even bars were connected with a source of alternative current (1.0 mA; Coulbourn Instruments Solid State Shocker/Distributor), which could be interrupted by a switch. The outer box was composed of the same material (length×width×height: 40×40×36 cm), also with an open top, with a distance of 5 cm between the inner and outer box on all sides. To decrease the amount of environmental stimuli, three walls of the outer box were made non-transparent. The front wall was left transparent to allow the necessary inspection of the animal during the test. The upper edge of the outer and inner box served as a target for the rats on which to jump with fore- and hind-paws, respectively.
From their arrival in the laboratory on the experimental day, male Wiga Wistar rats (230±30 g) were housed in individual cages provided with bedding material.
The rats were tested 3 times, i.e. at 60, 90 and 120 min after the injection of test compound or solvent. Latency to avoidance was recorded. The median avoidance response obtained over the three experimental sessions for each rat were used for further calculations.

PDE10 = molecular target: T1, PDE10 (Rattus norvegicus, UniProt Q9QYJ6); assay: PDE10 occupancy ([3H]-MP-10, striatum); type: in vivo; conditions: administered s.c.; for ED50: rat, sc, occupancy, read-out: Occ. ED50
T1 construct: from tissue; host or cells: rat brain sections, striatum (ex vivo autoradiography after in vivo dosing)
T1 sequence (Q9QYJ6 1-794): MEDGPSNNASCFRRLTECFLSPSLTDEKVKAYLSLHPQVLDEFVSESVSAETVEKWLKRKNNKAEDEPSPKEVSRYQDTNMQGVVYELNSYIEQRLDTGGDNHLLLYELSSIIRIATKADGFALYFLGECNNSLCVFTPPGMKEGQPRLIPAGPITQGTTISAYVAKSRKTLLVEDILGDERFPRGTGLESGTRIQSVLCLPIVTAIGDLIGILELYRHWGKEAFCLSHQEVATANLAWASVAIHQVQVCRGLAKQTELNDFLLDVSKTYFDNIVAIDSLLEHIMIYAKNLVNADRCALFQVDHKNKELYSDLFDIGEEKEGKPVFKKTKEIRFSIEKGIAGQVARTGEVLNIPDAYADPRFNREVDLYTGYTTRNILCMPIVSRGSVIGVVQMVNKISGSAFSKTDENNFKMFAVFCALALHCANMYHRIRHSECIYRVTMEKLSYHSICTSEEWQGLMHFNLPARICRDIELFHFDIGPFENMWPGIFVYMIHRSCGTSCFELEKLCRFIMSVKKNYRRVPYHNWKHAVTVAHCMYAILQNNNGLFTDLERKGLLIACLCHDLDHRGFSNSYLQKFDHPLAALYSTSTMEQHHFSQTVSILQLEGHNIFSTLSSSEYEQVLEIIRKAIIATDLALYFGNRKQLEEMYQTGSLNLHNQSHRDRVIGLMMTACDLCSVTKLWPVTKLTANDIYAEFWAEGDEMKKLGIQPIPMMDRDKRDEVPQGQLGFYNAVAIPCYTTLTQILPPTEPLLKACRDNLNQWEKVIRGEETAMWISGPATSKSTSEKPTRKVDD
Description: Dose-response or single dose experiments were performed to measure PDE10 occupancy 1 hour after subcutaneous (s.c.) or oral (p.o.) administration. Male Wistar rats (200 g) were treated by s.c. or p.o. administration of various PDE10 inhibitors. The PDE10 radioligand [^3H]-MP-10 (10 μCi/animal) was injected intravenously (i.v.) 30 minutes before sacrifice. Brains were immediately removed from the skull and rapidly frozen. Twenty μm-thick brain sections were cut using a cryostat-microtome, thaw-mounted on microscope slides and loaded in a β-imager to quantify PDE10 occupancy in the striatum.

[2] = system: apomorphine-induced stereotypy; assay: Apomorphine-induced stereotypy in rats (APO); type: in vivo; conditions: Rattus norvegicus
Description: Apomorphine-Induced Stereotypy in Rats (APO)
Apomorphine (1.0 mg/kg, i.v.)-induced stereotypy (compulsive sniffing, licking, chewing) was scored every 5 min. over the first hour after injection of apomorphine, following a 1 hour interval pre-treatment with the test compound. The score system was: (3) pronounced, (2) moderate, (1) slight, and (O) absent.

[3] = molecular target: T2, Rat recombinant PDE10A (rPDE10A2) (Rattus norvegicus, UniProt Q9QYJ6); assay: In vitro assay PDE10A (SPA, 3H-cAMP); type: biochemical
T2 construct: made in house; host or cells: Sf9 insect cells, baculovirus
T2 sequence (Q9QYJ6 1-794): T1 sequence (Q9QYJ6 1-794)
How it was run: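 Purified Sf9-expressed rat PDE10A2 incubated 60 min at RT with 60 nM cAMP plus 0.008 μCi 3H-cAMP in 50 mM Tris pH 7.8, 8.3 mM MgCl2, 1.7 mM EGTA, 1% DMSO final. Product quantified by scintillation proximity counting against no-enzyme blanks and DMSO controls.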

[4] = system: PCP-induced hyperlocomotion; assay: PCP-induced hyperlocomotion in rats (PCP); type: in vivo; conditions: Rattus norvegicus
PDE9A = PDE9A (Homo sapiens, UniProt O76083); assay: In vitro PDE selectivity assay, PDE9A; type: biochemical
Sequence of PDE9A (O76083 whole entry): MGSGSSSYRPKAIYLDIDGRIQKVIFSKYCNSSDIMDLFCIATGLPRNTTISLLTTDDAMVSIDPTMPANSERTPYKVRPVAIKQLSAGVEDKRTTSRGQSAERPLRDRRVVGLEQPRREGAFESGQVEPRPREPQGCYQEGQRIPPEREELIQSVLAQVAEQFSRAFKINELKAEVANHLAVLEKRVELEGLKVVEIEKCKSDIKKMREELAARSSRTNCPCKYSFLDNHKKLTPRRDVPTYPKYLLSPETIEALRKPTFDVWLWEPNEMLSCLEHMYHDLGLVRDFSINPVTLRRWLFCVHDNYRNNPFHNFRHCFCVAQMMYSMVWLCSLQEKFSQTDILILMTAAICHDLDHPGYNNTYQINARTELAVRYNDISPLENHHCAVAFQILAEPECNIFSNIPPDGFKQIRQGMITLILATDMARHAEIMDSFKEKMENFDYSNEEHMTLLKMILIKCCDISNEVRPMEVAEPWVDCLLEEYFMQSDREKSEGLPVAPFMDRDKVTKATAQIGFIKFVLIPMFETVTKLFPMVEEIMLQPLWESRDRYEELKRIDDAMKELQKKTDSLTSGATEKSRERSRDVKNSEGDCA
Description: (§1) Rat recombinant PDE10A (rPDE10A2) was expressed in Sf9 cells using a recombinant rPDE10A baculovirus construct. Cells were harvested after 48 h of infection and the rPDE10A protein was purified by metal chelate chromatography on Ni-sepharose 6FF. […] The reaction was incubated for 60 min. at RT. […] After sedimentation of the beads during 30 min. the radioactivity was measured in a Perkin Elmer Topcount scintillation counter and results were expressed as cpm. For blank values the enzyme was omitted from the reaction and replaced by incubation buffer. […] The same assay principle is applied for the measurement of the affinity of the compound for other members of the PDE family with appropriate modifications in incubation buffer, substrate concentration, incubation time and stop solution.

PDE1B = PDE1B (Homo sapiens, UniProt Q01064); assay: In vitro PDE selectivity assay, PDE1B; type: biochemical; conditions: Table 4a in vitro selectivity; read-out: IC50 PDE type 1B
Description: as §1

PDE3A = PDE3A (Homo sapiens, UniProt Q14432); assay: In vitro PDE selectivity assay, PDE3A; type: biochemical; conditions: Table 4a in vitro selectivity; read-out: IC50 PDE type 3A
Sequence of PDE3A (Q14432 whole entry): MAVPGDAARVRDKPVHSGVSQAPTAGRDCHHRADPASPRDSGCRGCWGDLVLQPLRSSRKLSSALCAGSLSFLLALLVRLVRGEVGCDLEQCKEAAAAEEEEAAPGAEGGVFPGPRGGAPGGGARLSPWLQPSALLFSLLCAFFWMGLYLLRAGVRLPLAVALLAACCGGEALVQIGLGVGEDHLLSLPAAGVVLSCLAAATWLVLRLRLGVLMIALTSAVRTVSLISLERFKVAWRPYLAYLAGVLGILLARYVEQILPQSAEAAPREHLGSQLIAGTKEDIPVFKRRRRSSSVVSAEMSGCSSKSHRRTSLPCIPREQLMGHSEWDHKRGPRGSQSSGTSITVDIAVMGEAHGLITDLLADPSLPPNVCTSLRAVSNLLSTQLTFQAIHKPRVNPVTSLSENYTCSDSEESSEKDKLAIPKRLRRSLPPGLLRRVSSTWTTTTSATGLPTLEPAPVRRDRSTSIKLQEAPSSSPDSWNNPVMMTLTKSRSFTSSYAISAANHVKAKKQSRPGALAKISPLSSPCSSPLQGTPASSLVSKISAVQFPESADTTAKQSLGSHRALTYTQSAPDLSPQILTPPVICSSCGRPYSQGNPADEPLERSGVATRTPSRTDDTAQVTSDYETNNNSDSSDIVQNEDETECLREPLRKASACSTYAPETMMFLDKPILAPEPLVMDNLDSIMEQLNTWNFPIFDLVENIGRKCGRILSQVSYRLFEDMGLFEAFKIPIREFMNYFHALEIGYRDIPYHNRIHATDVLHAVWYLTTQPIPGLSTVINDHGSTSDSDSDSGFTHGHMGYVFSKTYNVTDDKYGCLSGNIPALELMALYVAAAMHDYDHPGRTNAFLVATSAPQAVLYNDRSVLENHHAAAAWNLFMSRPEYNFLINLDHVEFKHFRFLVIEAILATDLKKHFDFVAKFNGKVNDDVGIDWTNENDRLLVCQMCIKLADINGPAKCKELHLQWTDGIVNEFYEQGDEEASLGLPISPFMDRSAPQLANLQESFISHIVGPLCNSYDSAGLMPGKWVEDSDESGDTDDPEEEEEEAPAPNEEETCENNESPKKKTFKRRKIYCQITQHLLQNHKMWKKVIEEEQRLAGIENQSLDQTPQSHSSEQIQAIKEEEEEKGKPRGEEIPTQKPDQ
Description: as §1

PDE4D = PDE4D (Homo sapiens, UniProt Q08499); assay: In vitro PDE selectivity assay, PDE4D; type: biochemical; conditions: Table 4a in vitro selectivity; read-out: IC50 PDE type 4D
Sequence of PDE4D (Q08499 whole entry, species assumed): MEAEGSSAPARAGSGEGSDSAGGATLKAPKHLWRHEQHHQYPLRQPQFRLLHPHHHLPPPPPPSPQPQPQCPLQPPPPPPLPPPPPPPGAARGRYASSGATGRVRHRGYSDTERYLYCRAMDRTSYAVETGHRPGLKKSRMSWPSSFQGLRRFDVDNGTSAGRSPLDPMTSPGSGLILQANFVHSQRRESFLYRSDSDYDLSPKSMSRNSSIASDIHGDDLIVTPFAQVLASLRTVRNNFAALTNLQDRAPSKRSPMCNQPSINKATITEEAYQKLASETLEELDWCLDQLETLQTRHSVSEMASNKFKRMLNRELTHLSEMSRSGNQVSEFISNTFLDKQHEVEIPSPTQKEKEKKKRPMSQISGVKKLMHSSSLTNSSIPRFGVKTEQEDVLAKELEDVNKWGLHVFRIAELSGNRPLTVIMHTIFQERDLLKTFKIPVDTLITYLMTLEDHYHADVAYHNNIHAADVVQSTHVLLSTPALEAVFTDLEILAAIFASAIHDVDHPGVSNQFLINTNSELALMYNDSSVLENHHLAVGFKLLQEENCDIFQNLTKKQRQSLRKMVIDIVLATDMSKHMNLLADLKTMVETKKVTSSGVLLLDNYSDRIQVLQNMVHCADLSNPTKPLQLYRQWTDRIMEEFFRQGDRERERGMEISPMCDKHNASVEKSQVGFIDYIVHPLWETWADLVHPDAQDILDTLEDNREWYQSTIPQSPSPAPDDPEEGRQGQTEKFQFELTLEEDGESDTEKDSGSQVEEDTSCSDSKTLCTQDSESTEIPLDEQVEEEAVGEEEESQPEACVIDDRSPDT
Description: as §1

PDE7A = PDE7A (Homo sapiens, UniProt Q13946); assay: In vitro PDE selectivity assay, PDE7A; type: biochemical; conditions: Table 4a in vitro selectivity; read-out: IC50 PDE type 7A
Sequence of PDE7A (Q13946 whole entry, species assumed): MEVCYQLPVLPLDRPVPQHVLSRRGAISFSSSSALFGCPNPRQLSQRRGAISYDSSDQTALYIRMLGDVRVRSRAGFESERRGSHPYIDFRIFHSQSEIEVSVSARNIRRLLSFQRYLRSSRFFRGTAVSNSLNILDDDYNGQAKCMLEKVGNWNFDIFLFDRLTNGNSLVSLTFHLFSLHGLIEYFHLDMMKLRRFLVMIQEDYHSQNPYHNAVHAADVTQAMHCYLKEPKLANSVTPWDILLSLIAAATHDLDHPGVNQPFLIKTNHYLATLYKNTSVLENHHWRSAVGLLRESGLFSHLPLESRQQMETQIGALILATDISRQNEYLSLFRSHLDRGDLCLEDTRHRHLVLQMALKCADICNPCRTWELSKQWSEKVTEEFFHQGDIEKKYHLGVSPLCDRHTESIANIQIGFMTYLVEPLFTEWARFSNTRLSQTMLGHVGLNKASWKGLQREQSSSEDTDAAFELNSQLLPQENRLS
Description: as §1

PDE2A = PDE2A (Homo sapiens, UniProt O00408); assay: In vitro PDE selectivity assay, PDE2A; type: biochemical
Sequence of PDE2A (O00408 whole entry, species assumed): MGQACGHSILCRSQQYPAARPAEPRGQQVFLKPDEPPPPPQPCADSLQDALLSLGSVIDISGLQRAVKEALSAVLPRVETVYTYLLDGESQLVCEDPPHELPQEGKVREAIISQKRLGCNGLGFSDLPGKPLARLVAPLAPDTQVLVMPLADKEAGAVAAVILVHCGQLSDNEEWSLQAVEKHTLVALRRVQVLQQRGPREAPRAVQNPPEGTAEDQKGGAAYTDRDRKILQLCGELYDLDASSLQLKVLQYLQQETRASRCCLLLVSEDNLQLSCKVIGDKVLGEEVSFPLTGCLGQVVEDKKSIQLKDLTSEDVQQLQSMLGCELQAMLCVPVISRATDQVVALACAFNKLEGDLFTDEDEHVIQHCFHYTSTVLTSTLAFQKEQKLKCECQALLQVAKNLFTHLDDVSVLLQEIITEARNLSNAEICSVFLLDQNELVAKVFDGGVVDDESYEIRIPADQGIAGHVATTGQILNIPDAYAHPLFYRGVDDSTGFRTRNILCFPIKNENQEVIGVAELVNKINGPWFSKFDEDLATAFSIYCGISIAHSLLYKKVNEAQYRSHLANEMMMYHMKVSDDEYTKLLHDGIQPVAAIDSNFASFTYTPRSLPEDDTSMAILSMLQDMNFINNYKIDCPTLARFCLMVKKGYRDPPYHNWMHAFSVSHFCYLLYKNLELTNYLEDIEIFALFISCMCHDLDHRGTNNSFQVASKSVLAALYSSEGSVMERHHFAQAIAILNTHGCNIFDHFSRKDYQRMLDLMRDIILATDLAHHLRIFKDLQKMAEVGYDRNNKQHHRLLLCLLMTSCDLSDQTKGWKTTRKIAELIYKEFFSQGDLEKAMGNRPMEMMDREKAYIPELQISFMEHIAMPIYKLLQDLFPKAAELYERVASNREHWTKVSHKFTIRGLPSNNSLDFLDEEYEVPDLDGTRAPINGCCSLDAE
Description: as §1

PDE5A = PDE5A (Homo sapiens, UniProt O76074); assay: In vitro PDE selectivity assay, PDE5A; type: biochemical; conditions: Table 4a in vitro selectivity; read-out: IC50 PDE type 5A
Description: as §1

PDE11A = PDE11A (Homo sapiens, UniProt Q9HCR9); assay: In vitro PDE selectivity assay, PDE11A; type: biochemical; conditions: Table 4a in vitro selectivity; read-out: IC50 PDE type 11A
Sequence of PDE11A (Q9HCR9 whole entry, species assumed): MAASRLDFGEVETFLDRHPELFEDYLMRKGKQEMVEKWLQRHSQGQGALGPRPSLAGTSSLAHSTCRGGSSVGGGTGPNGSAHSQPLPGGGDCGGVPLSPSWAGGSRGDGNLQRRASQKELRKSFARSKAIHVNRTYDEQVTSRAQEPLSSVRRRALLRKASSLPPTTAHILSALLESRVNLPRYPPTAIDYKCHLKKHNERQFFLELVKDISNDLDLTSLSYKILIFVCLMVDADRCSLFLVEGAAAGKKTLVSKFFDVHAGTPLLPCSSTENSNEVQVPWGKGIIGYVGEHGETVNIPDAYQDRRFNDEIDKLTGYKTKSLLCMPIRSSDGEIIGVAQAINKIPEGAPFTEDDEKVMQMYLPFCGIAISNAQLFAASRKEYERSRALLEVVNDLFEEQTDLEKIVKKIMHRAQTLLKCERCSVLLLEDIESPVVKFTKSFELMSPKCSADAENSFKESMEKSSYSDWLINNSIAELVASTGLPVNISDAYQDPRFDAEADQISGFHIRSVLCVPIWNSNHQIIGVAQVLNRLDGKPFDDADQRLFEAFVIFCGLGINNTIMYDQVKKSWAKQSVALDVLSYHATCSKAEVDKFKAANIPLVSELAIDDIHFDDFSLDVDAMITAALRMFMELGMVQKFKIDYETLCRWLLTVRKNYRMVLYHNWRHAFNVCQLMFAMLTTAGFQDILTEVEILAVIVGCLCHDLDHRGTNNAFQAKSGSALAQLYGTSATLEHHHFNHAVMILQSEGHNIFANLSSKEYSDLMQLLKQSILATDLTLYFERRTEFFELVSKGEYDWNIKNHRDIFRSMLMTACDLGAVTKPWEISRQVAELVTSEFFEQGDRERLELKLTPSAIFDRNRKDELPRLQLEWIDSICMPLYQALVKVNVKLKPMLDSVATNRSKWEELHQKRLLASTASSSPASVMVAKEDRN
Description: as §1

[5] = system: scopolamine induced memory deficit; assay: Object recognition test (scopolamine induced memory deficit); type: in vivo, rat; conditions: rats
Description: They were kept under a 12/12-hour light/dark cycle (lights on from 19.00 to 7.00 h) and had free access to food and water. […] A radio, which was playing softly, provided background noise in the room. […] The apparatus consisted of a circular arena, 83 cm in diameter. […] The light intensity was equal in the different parts of the apparatus, as fluorescent red tubes provided a constant illumination of about 20 lux on the floor of the apparatus. […] Each object was available in triplicate. Four different sets of objects were used. A testing session consisted of two trials. […] During the first trial (T1) the apparatus contained two identical objects (samples). Rats were placed in the apparatus facing the wall at the middle of the front (transparent) segment. After the first exploration period the rat was put back in its home cage. […] Exploration was defined as follows: directing the nose to the object at a distance of no more than 2 cm and/or touching the object with the nose. Sitting on the object was not considered as exploratory behavior.

[6] = pIC50 corresponds to the -log IC50 expressed in mol/L
[7] = pIC50 corresponds to the -log IC50 expressed in mol/L, read-out: PDE10A2 pIC50 (converted)

CO[C@@H](C)Cn1cc(-c2c(C)nc3c(N4CCOCC4)nccn23)cn1 [compound 57]
ED50 [1]: 5 mg/kg
ED50 (PDE10): 8 mg/kg
ED50 ([2]; read-out: APO ED50): 1.2 mg/kg
PDE10A2 pIC50 [3, 6]: 7.22

Cc1nc2c(-c3ccncc3)nccn2c1-c1cnn(CC(C)C)c1 [compound 69]
ED50 [4]: 2 mg/kg
% Occ. at 10 mg/kg (PDE10): 67%
ED50 ([2]; read-out: APO ED50): 5 mg/kg
IC50 [3, 7]: 89.1 nM

COCCc1ccc(-c2c(C)nc3c(N4CCOCC4)nccn23)cn1 [compound 16, 3-[6-(2-Methoxy-ethyl)-pyridin-3-yl]-2-methyl-8-morpholin-4-yl-imidazo[1,2-a]pyrazine]
ED50 [4]: 1.54 mg/kg
ED50 [1]: 2 mg/kg
ED50 ([2]; read-out: APO ED50): 1 mg/kg

COCCn1cc(-c2c(C3CC3)nc3c(N4CCOCC4)nccn23)cn1 [compound 53]
ED50 [4]: ≤ 40 mg/kg
ED50 ([2]; read-out: APO ED50): 5 mg/kg
PDE10A2 pIC50 [3, 6]: 7.27

COCCc1ncc(-c2c(C)nc3c(N4CCOCC4)nccn23)cn1 [compound 33, 3-[2-(2-Methoxy-ethyl)-pyrimidin-5-yl]-2-methyl-8-morpholin-4-yl-imidazo[1,2-a]pyrazine]
IC50 (PDE9A; Table 4a in vitro selectivity, read-out: IC50 PDE type 9A): > 10 µM
IC50 (PDE1B): 2950 nM
IC50 (PDE3A): > 10 µM
IC50 (PDE4D): > 10 µM
ED50 ([2]; read-out: APO ED50): 0.8 mg/kg
IC50 (PDE7A): > 10 µM
IC50 (PDE2A; Table 4a in vitro selectivity, read-out: IC50 PDE type 2A): > 10 µM
IC50 (PDE5A): > 10 µM
IC50 ([3]; Table 4a in vitro selectivity, read-out: IC50 PDE type 10A): 500 nM
IC50 [3, 7]: 148 nM
IC50 (PDE11A): > 10 µM

COC(C)(C)Cn1cc(-c2c(C)nc3c(-c4ccncc4)nccn23)cn1 [compound 78]
Selectivity PDE9 (PDE9A; in vitro selectivity towards PDE10A versus PDE9): >10-100 fold, except 78 (<10 fold selectivity)
% Occ. at 10 mg/kg (PDE10): 76%
ED50 ([2]; read-out: APO ED50): 1.2 mg/kg
IC50 [3, 7]: 105 nM

c1cn2c(-c3cnn(CC4CC4)c3)cnc2c(N2CCOCC2)n1 [compound 119]
ED50 ([2]; not active at 2.5 or at 10 mg/kg, not further tested, read-out: APO ED50 (not active at threshold dose)): > 2.5 mg/kg
Selectivity PDE2A (PDE2A; in vitro selectivity towards PDE10A versus PDE2A): ≧10 fold, except compound 119 (>3.02 fold selectivity)
IC50 [3, 7]: 324 nM

COc1cc2ncnc(N3CC[C@@H](Oc4cnc5ccccc5n4)C3)c2cc1OC [PQ10, 6,7-dimethoxy-4-[3(R)-(quinoxalin-2-yloxy)pyrrolidin-1-yl]quinazoline]
index of discrimination (d2), mean ([5]; 1 mg/kg p.o. + Scop. 0.1 mg/kg, 1 h delay): 0.27
discrimination compared to the vehicle/scopolamine condition (post-hoc analysis) ([5]; 1 mg/kg p.o. + scopolamine): significantly better discrimination

COC(C)(C)Cn1cc(-c2c(C)nc3c(N4CCOCC4)nccn23)cn1 [compound 72]
ED50 [4]: 2 mg/kg
ED50 (PDE10): 6.4 mg/kg
ED50 ([2]; read-out: APO ED50): 1.2 mg/kg
IC50 [3, 7]: 95.5 nM

Cc1nc2c(N3CCOCC3)nccn2c1-c1cnn(CC(C)C)c1 [compound 97]
ED50 [4]: 5.4 mg/kg
ED50 [1]: 12.3 mg/kg
ED50 ([2]; read-out: APO ED50): 2 mg/kg

Cc1nc2c(N3CCOCC3)nccn2c1-c1cnn(CC2CC2(F)F)c1 (stereo not drawn) [compound 52]
ED50 [4]: ≤ 10 mg/kg
ED50 (PDE10): 5.5 mg/kg
ED50 ([2]; read-out: APO ED50): 3.1 mg/kg
IC50 [3, 7]: 52.5 nM
